# Data from the supplement of paper PMC10307832.
# What was measured:
# Assay in all cases: relative viability (nuclei count vs DMSO), 5 days (fraction); higher = more cells survive
# Irinotecan + Foretinib = compound: CCc1c2c(nc3ccc(OC(=O)N4CCC(N5CCCCC5)CC4)cc13)-c1cc3c(c(=O)n1C2)COC(=O)[C@]3(O)CC [Irinotecan] + COc1cc2c(Oc3ccc(NC(=O)C4(C(=O)Nc5ccc(F)cc5)CC4)cc3F)ccnc2cc1OCCCN1CCOCC1 [Foretinib] (partner 0.25 µM)
# In short: (§1)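 Values are medians from duplicate plates. Each reflects relative viability, defined as the nuclei count of treated wells over that of vehicle wells. Lung cancer cell lines in 1536-well plates were pin-tool dosed one day after seeding with one drug alone or with a fixed anchor-drug dose plus five library-drug doses (not always all listed) in √10 steps, then fixed, stained and imaged at 4× after 5 days.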
# MK-8033 + Decitabine = compound: Cn1cc(-c2cnc3ccc4ccc(CS(=O)(=O)NCc5ccccn5)cc4c(=O)c3c2)cn1 [MK-8033] + Nc1ncn([C@H]2C[C@H](O)[C@@H](CO)O2)c(=O)n1 [Decitabine] (partner 2 µM)
# In short: as §1
# Irinotecan + Palbociclib = compound: CCc1c2c(nc3ccc(OC(=O)N4CCC(N5CCCCC5)CC4)cc13)-c1cc3c(c(=O)n1C2)COC(=O)[C@]3(O)CC [Irinotecan] + CC(=O)c1c(C)c2cnc(Nc3ccc(N4CCNCC4)cn3)nc2n(C2CCCC2)c1=O [Palbociclib] (partner 0.5 µM)
# In short: as §1
# RU-SKI 43 + Olaparib = compound: CC[C@@H](C)CNCC(=O)N1CCC2=C([C@@H]1COC3=CC=CC(=C3)C)C=CS2 [RU-SKI 43] + O=C(c1cc(Cc2n[nH]c(=O)c3ccccc23)ccc1F)N1CCN(C(=O)C2CC2)CC1 [Olaparib] (partner 8 µM)
# In short: as §1
Cell Line,relative viability (Irinotecan + Foretinib; first compound 2 µM),relative viability (Irinotecan + Foretinib; first compound 6.325 µM),relative viability (Irinotecan + Foretinib; first compound 20 µM),relative viability (MK-8033 + Decitabine; first compound 0.02 µM),relative viability (MK-8033 + Decitabine; first compound 0.06325 µM),relative viability (MK-8033 + Decitabine; first compound 0.2 µM),relative viability (MK-8033 + Decitabine; first compound 0.6325 µM),relative viability (MK-8033 + Decitabine; first compound 2 µM),relative viability (Irinotecan + Palbociclib; first compound 0.6325 µM),relative viability (Irinotecan + Palbociclib; first compound 2 µM),relative viability (Irinotecan + Palbociclib; first compound 6.325 µM),relative viability (Irinotecan + Palbociclib; first compound 20 µM),relative viability (RU-SKI 43 + Olaparib; first compound 0.1 µM),relative viability (RU-SKI 43 + Olaparib; first compound 0.3162 µM),relative viability (RU-SKI 43 + Olaparib; first compound 1 µM),relative viability (RU-SKI 43 + Olaparib; first compound 3.162 µM),relative viability (RU-SKI 43 + Olaparib; first compound 10 µM),relative viability (Irinotecan + Foretinib; first compound 0.6325 µM)
201T,0.991,0.53,0.151,0.9,0.868,0.851,0.873,0.876,0.403,0.343,0.265,0.22,0.835,0.888,0.843,0.858,0.836,
A549,0.611,0.122,0.0515,0.263,0.319,0.474,0.156,0.305,,,,,0.362,0.462,0.277,0.278,0.291,0.885
A-427,0.24,0.229,0.219,0.579,0.523,0.585,0.583,0.569,0.499,0.487,0.292,0.132,0.707,0.759,0.68,0.752,0.626,
ABC-1,0.617,0.28,0.152,1.1,0.976,1.07,1.01,1.26,,0.628,0.506,0.358,0.714,0.786,0.908,0.926,0.705,
BEN,0.613,0.206,0.324,0.805,0.702,0.655,0.71,0.761,0.45,0.448,0.387,0.534,1.16,1.2,1.09,1.09,1.07,0.328
CAL-12T,0.924,0.398,0.293,,,,,,0.316,0.344,0.251,0.197,0.709,0.804,0.855,0.666,0.698,
COR-L23,0.446,0.183,0.192,0.447,0.361,0.465,0.455,0.443,0.155,0.218,0.184,0.105,0.333,0.403,0.377,0.325,0.359,0.525
COR-L 105,0.8,0.682,0.524,0.659,0.556,0.619,0.689,0.691,0.407,0.395,0.454,0.3,0.658,0.57,0.815,0.683,0.603,1.11
Calu-6,0.429,0.168,0.087,,,,,,,,,,0.555,0.621,0.622,0.615,0.499,0.605
ChaGo-K-1,0.367,0.255,0.248,0.525,0.463,0.56,0.385,0.511,0.256,0.247,0.22,0.203,0.391,0.446,0.413,0.403,0.383,0.65
EBC-1,0.1,0.115,0.112,,,,,,,,,,0.817,0.883,0.759,0.729,0.642,0.0988
EKVX,0.726,0.529,0.164,0.34,0.285,0.388,0.343,0.399,,0.311,0.265,0.227,0.716,0.971,0.866,1.04,0.849,0.199
EMC-BAC-2,0.379,0.274,0.44,0.941,0.762,0.967,0.982,0.938,0.387,0.346,0.337,0.248,0.476,0.495,0.54,0.487,0.486,0.691
EPLC-272H,0.235,0.168,0.297,0.338,0.373,0.325,0.367,0.37,,0.22,0.304,0.264,0.597,0.648,0.813,0.697,0.64,0.283
H3255,0.558,0.36,0.305,0.486,,0.595,0.642,0.639,0.304,0.301,0.292,0.336,0.579,0.594,0.572,0.574,0.529,0.398
HARA,0.174,0.116,0.127,0.651,0.508,0.463,0.559,0.605,0.26,0.184,0.225,0.232,0.822,0.735,0.754,0.894,0.923,0.315
HCC-15,0.695,0.23,0.161,0.62,0.595,0.548,0.57,0.653,0.41,0.346,0.182,0.141,0.71,0.874,0.755,0.772,0.627,
HCC-44,,,,0.95,0.933,0.948,1.02,0.954,0.841,0.631,0.484,0.532,0.984,0.981,1.06,1.06,0.954,
HCC-78,0.491,0.282,0.24,0.657,0.728,0.645,0.559,0.692,0.474,0.363,0.37,0.347,0.849,1.02,0.767,0.868,0.856,0.695
HCC-366,0.114,0.0566,0.0694,0.327,0.361,0.331,0.36,0.366,0.228,0.18,0.0611,0.0667,0.307,0.464,0.314,0.424,0.31,0.346
HCC-827,0.324,0.207,0.175,0.345,,0.322,0.376,0.37,0.438,0.304,0.167,0.206,0.614,0.733,0.659,0.72,0.669,0.637

Cell Line,relative viability (Irinotecan + Foretinib; first compound 2 µM),relative viability (Irinotecan + Foretinib; first compound 6.325 µM),relative viability (Irinotecan + Foretinib; first compound 20 µM),relative viability (MK-8033 + Decitabine; first compound 0.02 µM),relative viability (MK-8033 + Decitabine; first compound 0.06325 µM),relative viability (MK-8033 + Decitabine; first compound 0.2 µM),relative viability (MK-8033 + Decitabine; first compound 0.6325 µM),relative viability (MK-8033 + Decitabine; first compound 2 µM),relative viability (Irinotecan + Palbociclib; first compound 0.6325 µM),relative viability (Irinotecan + Palbociclib; first compound 2 µM),relative viability (Irinotecan + Palbociclib; first compound 6.325 µM),relative viability (Irinotecan + Palbociclib; first compound 20 µM),relative viability (RU-SKI 43 + Olaparib; first compound 0.1 µM),relative viability (RU-SKI 43 + Olaparib; first compound 0.3162 µM),relative viability (RU-SKI 43 + Olaparib; first compound 1 µM),relative viability (RU-SKI 43 + Olaparib; first compound 3.162 µM),relative viability (RU-SKI 43 + Olaparib; first compound 10 µM),relative viability (Irinotecan + Foretinib; first compound 0.6325 µM)
HOP-62,0.256,0.199,0.195,0.222,0.234,0.261,0.189,0.199,0.211,0.202,0.187,0.22,0.322,0.235,0.223,0.511,0.436,0.7
IA-LM,0.62,0.148,0.117,,,,,,,,,,0.877,0.87,0.976,0.732,0.812,0.951
LC-2-ad,0.621,0.288,0.235,0.889,1.08,0.722,0.813,0.722,0.407,0.371,0.316,0.251,0.697,0.774,0.771,0.712,0.677,0.73
LCLC-97TM1,0.172,0.151,0.194,0.218,0.207,,0.209,0.211,0.114,0.0978,0.113,0.108,0.408,0.347,0.535,0.446,0.416,0.435
LCLC-103H,0.522,0.373,0.347,0.699,0.724,0.673,0.736,0.766,0.452,0.412,0.446,0.5,0.748,0.865,0.882,0.829,0.816,0.59
LK-2,0.329,0.305,0.283,0.299,0.3,0.322,0.339,0.343,0.594,0.72,0.227,0.245,0.808,0.639,0.788,0.612,0.75,1.25
LOU-NH91,0.756,0.374,0.294,0.792,0.662,0.789,0.789,0.813,0.509,0.494,0.418,0.263,0.908,0.94,0.973,0.926,0.879,0.871
LU99A,0.253,0.187,0.225,0.853,0.901,0.849,0.951,0.883,0.173,0.179,0.153,0.172,0.261,0.276,0.285,0.271,0.262,0.366
LXF-289,0.615,0.167,0.2,0.377,0.394,0.352,0.408,0.338,0.527,0.279,0.251,0.23,1.09,1.09,1.17,1.16,0.948,1.05
NCI-H23,0.258,0.227,0.25,0.282,0.332,0.3,,0.299,0.446,0.332,0.249,0.254,0.28,0.263,0.292,0.326,0.279,0.471
NCI-H322M,0.882,0.491,0.368,0.74,0.663,0.742,0.762,0.747,0.527,0.502,0.458,0.336,0.703,0.817,0.76,0.797,0.703,0.971
NCI-H522,,,,0.552,0.617,0.73,0.612,0.725,0.872,0.585,0.413,0.475,0.661,0.641,0.596,0.707,0.601,
NCI-H596,0.783,0.621,0.632,0.987,0.901,0.921,1.12,1.03,,,,,0.719,0.548,0.654,0.712,0.709,0.841
NCI-H1299,0.909,0.483,0.212,,,,,,,,,,0.948,0.995,1.04,0.99,0.959,0.888
NCI-H1563,0.928,0.975,0.425,,,,,,,,,,,,,,,0.966
NCI-H1623,0.64,0.299,0.279,,,,,,,,,,,,,,,0.621
NCI-H1648,,,,0.402,,0.543,0.515,0.468,0.254,0.303,0.346,0.355,1.02,1.06,0.614,0.91,0.835,
NCI-H1703,0.433,0.512,0.367,,,,,,,,,,0.439,0.456,0.407,0.452,0.248,0.321
NCI-H1792,,,,0.527,0.508,0.47,0.522,0.537,0.63,0.555,0.435,0.254,0.301,0.472,0.474,0.385,0.281,
NCI-H2228,0.731,0.293,0.238,,,,,,0.453,0.664,0.393,0.456,0.6,0.858,0.642,0.638,0.654,0.925
